Laboratory results as given in patent US20100168033A1, “UNACYLATED GHRELIN AS THERAPEUTIC AGENT IN THE TREATMENT OF METABOLIC DISORDERS” (ALIZE PHARMA SAS, priority 2007, published 2010).
Read-outs that look alike come from different tables or passages of the source. Non-standard residues stand in square brackets, D forms with d. No end group written: not given here.

How the values were obtained:
HIT-T15 β-cells [1] = assay type: cell-based; conditions: for increase of cell survival: serum-free conditions
Protocol: MTT experiments were also performed in hamster HIT-T15 β-cells, to test the survival effect of UAG (1-28) or its fragments UAG (1-14), UAG (1-18), UAG (1-5) and UAG (17-28) in serum deprived medium, either alone or with IFN-γ/TNF-α/IL-1β. As for the experiments performed on INS-1E β-cells, the peptides were tested at increasing concentrations, ranging from 0.1 nM to 100 nM.
The survival effect of UAG (6-13), UAG (8-13), UAG (8-12), UAG (8-11), UAG (9-12) and UAG (9-11) was assessed in cytokine-treated HIT-T15 β-cells.
The protective effects of peptides UAG (8-13) and UAG (8-12) were found similar to those of UAG (1-14) and UAG (1-18) A peptide made of the inverse sequence of UAG (1-14) and named UAG (14-1), was used as negative control for these experiments (FIG. 5A). […] These effects were however lower than those of UAG (6-13) (FIG. 5B).
UAG fragments with alanine (Ala) substitutions at different amino acid positions (6 to 13) were tested with regards to their survival effects in HIT-T15 hamster β-cells. The cells were cultured in serum deprived medium, either alone or with IFN-γ/TNF-α/IL-1β. The peptides were tested at the concentrations of 1 nM to 100 nM. […] Under treatment with cytokines, where cell survival was reduced by ≈18% with respect to serum starved conditions, all Ala substitutions, except those at positions 10 and 11, completely reversed cell death and brought the survival rate to levels that were even higher than those under serum-free conditions, at both 1 nM and 100 nM concentrations. These effects, were similar to those elicited by the original peptide UAG (6-13) (FIG. 11B).
Particularly, the best effect was exerted by Gly 6-UAG (6-13), whereas the lowest was seen using AcSer 6-UAG (6-13), AcSer 6-(D)Pro 7-UAG (6-13) (FIG. 12B).
(§1) Cell culture—Hamster HIT-T15 insulin-secreting β-cells were obtained and cultured as described (Refs. 14, 4). INS-1E rat β-cells were kindly provided by Prof. Claes B. Wollheim (University Medical Center, Geneva, Switzerland) and cultured as described (Refs. 14, 4). Cell culture reagents were from Invitrogen (Milano, Italy). Cytokines were from Biosource (Invitrogen, Italy).
(§2) Cell survival assay—Cell survival was assessed by 3-[4,5-dimethylthiazol-2-yl]-2,5 diphenyltetrazolium bromide (MTT) as described previously (Ref. 4). Cells were seeded on 96-well plates at a density of 5×10^3 cells/well. After treatments, cells were incubated with 1 mg/ml MTT for ≈1 h. The medium was aspirated, and the formazan product solubilized with 100 μl DMSO. Viability was assessed by spectrophotometry at 570 nm absorbance using a 96-well plate reader.

human pancreatic islets = assay: MTT cell survival assay in human pancreatic islets; assay type: cell-based; conditions: 1 nM to 100 nM
Protocol: The survival effect of UAG (1-14), UAG (1-18), UAG (1-5) and UAG (17-28), with respect to that of full length UAG (1-28), was assessed in human pancreatic islets by MTT. The peptides were tested in islet cells cultured in serum deprived medium, either alone or with IFN-γ/TNF-α/IL-1β (5 ng/ml each).
Human islet isolation—Human islets were obtained from pancreases of multiorgan donors as described (Ref. 4). Islet preparations with purity >70%, not suitable for transplantation, were provided by European Consortium for Islet Transplantation (ECIT) “Islets for Research Distribution Program,” Transplant Unit, Scientific Institute San Raffaele, Vita-Salute University, Milan. Islets (10,000) were cultured in CMRL (Invitrogen) with 10% FBS.
as §2

INS-1E β-cells = assay: MTT cell survival assay in INS-1E β-cells; assay type: cell-based, rat; conditions: peptides 0.1 nM to 100 nM
Protocol: The peptides were tested at increasing concentrations, ranging from 0.1 nM to 100 nM.
as §1, §2

HIT-T15 β-cells [2] = assay: Apoptosis in cytokine-treated HIT-T15 β-cells; assay type: cell-based, hamster; conditions: for cytokine-induced apoptosis: 24 h serum-free medium with IFN-γ/TNF-α/IL-1β, peptides 1, 10, 100 nM
Protocol: HIT-T15 β-cells were cultured for 24 h in serum-free medium, either alone or with IFN-γ/TNF-α/IL-1β. In both cell lines, apoptosis increased under cytokine treatment, with respect to serum starvation alone. […] UAG (14-1), the inverse sequence of UAG (1-14), was used as negative control, whereas UAG (1-28), was used as positive control in each experiment.

[3] = system: UAG receptor on INS-1E pancreatic β-cells; assay: [125I-Tyr4]-UAG competition binding, INS-1E membranes; parameters: species or system rat; conditions: for binding to the UAG receptor: INS-1E cells
Protocol: (§3) The ability of the fragment UAG (6-13) to compete in a concentration-dependent manner with [^125I-Tyr^4]-UAG for HIT-T15 (FIG. 10A) and INS-1E (FIG. 10B) binding sites was assayed. As shown in FIGS. 10A and 10B, unlabelled UAG (1-28) and UAG (6-13) competed with a similar efficacy and in a concentration-dependent fashion with [^125I-Tyr^4]-UAG for such binding sites in both cell lines.
(§4) Binding assay—Membranes from hamster HIT-T15 and rat INS-1E to pancreatic β-cells were prepared and assayed for the presence of [^125I-Tyr^4]-UAG binding. The ability of UAG fragments to compete with the radioligand for such binding sites has been evaluated as previously described (Ref. 4). Data are presented as mean±S.E.M. of three independent experiments.

[4] = system: UAG receptor on HIT-T15 pancreatic β-cells; assay: [125I-Tyr4]-UAG competition binding, HIT-T15 membranes; parameters: species or system hamster; conditions: for binding to the UAG receptor: HIT-T15 cells
Protocol: as §3, §4

ob/ob mice = assay: ob/ob mice, 4-week intraperitoneal pump infusion; assay type: in vivo, mouse
Protocol: Baseline tail vein plasma samples were collected from free-fed and 16 h fasted ob/ob mice 7 and 6 days before pump implantation into K2EDTA coated capillary tubes (Microvette CB300 K2E; Sarstedt, Germany). The animals were then separated into three groups with approximately equivalent weight ranges. Ten week old mice were anesthetized, and a filled Alzet 1004 pump was inserted, delivery portal first, into the peritoneal cavity. The musculoperitoneal and skin layers were then closed using interrupted sutures (Vicryl 5.0 FS-2 absorbable suture). Animals received pumps containing either saline, 10 mg/ml UAG, or 3.5 mg/mL UAG (6-13) (n=8 per group). Alzet 1004 pumps deliver […], and infused 30 μg of hUAG/animal/day (˜600 μg/kg/day) and 10 μg of UAG (6-13)/animal/day (˜200 μg/kg/day).
Blood samples (at 0900-1000) were obtained from fed and fasted animals at weeks 2 and 4 via the tail vein into EDTA Microvette tubes. Glucose levels in tail vein blood were measured directly using a glucometer. On the last day of treatment baseline (fasted) blood samples were taken.
For the experimental data illustrated in FIGS. 14A, 14B, 15 and 16, the animals were obtained from Charles River Laboratories (Maastricht, The Netherlands). Animals (B6.V-Lep^ob/J, Charles River Laboratories, Belgian colony) were received in our animal facilities at 8 weeks of age, and acclimatized in individual cages for 2 weeks before treatments began. They were maintained under standard 12:12 h light:dark conditions, 21° C., and were allowed free access to food and water. The animals were also handled daily to accustom them to the method used for blood collection. The peptides were dissolved in sterile, nonpyrogenic, 0.9% saline (Baxter BV, Utrecht, The Netherlands). D-glucose was obtained from Sigma-Aldrich Chemie BV (Zwijndrecht, The Netherlands), and was dissolved at 400 mg/ml in 0.9% saline. Alzet pumps (model 1004) were obtained from Charles River Laboratories (Maastricht, The Netherlands). Pumps were filled with 0.9% saline, UAG or UAG (6-13) solution under sterile conditions, and pre-incubated in 0.9% saline for at least 48 hours at 37° C. to initiate flow. Blood glucose levels were measured directly from tail vein incisions using a Freestyle mini glucometer and test strips (ART05214 Rev.A; Abbot, Amersfoort, The Netherlands). Plasma insulin levels were assayed by Ultra-sensitive mouse insulin ELISA (Cat. #10-1150-10; Mercodia, Sweden).

[5] = system: Streptozotocin (STZ)-treated animals; assay: Streptozotocin (STZ)-treated neonatal rats, diabetes model; assay type: in vivo, rat; conditions: for animal survival rate: day 9 after STZ
Source text: Natural birth occurred 6-7 days later. […] Pups were left with their mothers.
Pancreas removal and treatment—After excision, pancreases were removed and weighed.

[6] = serum deprived medium with IFN-γ/TNF-α/IL-1β
[7] = serum deprived medium with IFN-γ/TNF-α/IL-1β (5 ng/ml each)

Glu-His-Gln-Arg (EHQR; listed as Homo sapiens) [UAG (8-11)]
cell survival (MTT) (HIT-T15 β-cells [1]; [6]): significant survival effect only at 100 nM

Gly-Ser-Ser-Phe-Leu (GSSFL; listed as Homo sapiens) [UAG (1-5)]
cell survival (MTT) (human pancreatic islets; serum deprived medium alone): little, although significant survival action at 10 nM | cell survival (MTT) (human pancreatic islets; [7]): no cell protection | cell survival (MTT) (INS-1E β-cells; [6]): reduced effect | cell survival (MTT) (INS-1E β-cells; serum-free medium): reduced, although significant, survival action | cell survival (MTT) (HIT-T15 β-cells [1]; [6]): slightly increased cell survival

Glu-His-Gln-Arg-Val (EHQRV; printed: Glu-His-Gln-Arg-Val) [UAG (8-12)]
cytokine-induced apoptosis (HIT-T15 β-cells [2]): some protective effect only at 100 nM

His-Gln-Arg-Val (HQRV; listed as Homo sapiens) [UAG (9-12)]
cell survival (MTT) (HIT-T15 β-cells [1]; [6]): significantly increased cell survival at both the concentrations tested

Ac-Ser-Pro-Glu-His-Gln-Arg-Val-Gln-NH2 (Ac-SPEHQRVQ-NH2; listed as Homo sapiens) [AcSer 6-UAG (6-13)]
cell survival (MTT) (HIT-T15 β-cells [1]; [6]): lowest

UAG (1-13): UAG fragment named only in b93 as binding to the UAG receptor; no sequence listed (GSSFLSPEHQRVQ)
binding to the UAG receptor [3]: recognized and bound to the UAG receptor | binding to the UAG receptor [4]: recognized and bound to the UAG receptor

SPEHQRVQ [UAG (6-13), Ser-Pro-Glu-His-Gln-Arg-val-Gln]
binding to the UAG receptor [3]: highest binding activity | IC50 ([3]; INS-1E membranes, mean±S.E.M. of three experiments): 2.4 ± 0.3 nM | binding to the UAG receptor [4]: highest binding activity | IC50 ([4]; HIT-T15 membranes, mean±S.E.M. of three experiments): 3.8 ± 0.3 nM | suppressive effect on plasma glucose levels in fed animals (ob/ob mice; fed animals, relative to saline controls): 30-40% | fed plasma glucose levels (ob/ob mice; fed animals, relative to saline controls, not statistically significant (RM-ANOVA)): consistent suppressive effect | gonadal fat weight (ob/ob mice; over the period of treatment): did not cause an increase in gonadal fat weight | decrease of gonadal fat pad weight relative to saline treated controls (ob/ob mice; period of treatment, trend p<0.06): approximately 7% | cytokine-induced apoptosis (HIT-T15 β-cells [2]): significantly reduced cytokine-induced apoptosis | cell number and morphology (HIT-T15 β-cells [2]; with respect to cytokine condition, data not shown): increased the number of cells, induced cell enlargement and small islets formation | animal survival rate ([5]; 30 nmol/l): ≈ 71% | animal survival rate ([5]; 100 nmol/l): 89% | reduction of plasma glucose vs. STZ group ([5]; day 70, 30 nmol/l): 31% | reduction of plasma glucose vs. STZ group ([5]; day 70, 100 nmol/l): 14% | plasma insulin levels ([5]; day 70, STZ-treated rats, UAG (6-13) at both concentrations): increasing insulin levels | increase of cell survival (HIT-T15 β-cells [1]; peptide 1 nM): ≈ 18% | increase of cell survival (HIT-T15 β-cells [1]; peptide 100 nM): ≈ 30%

Gly-Pro-Glu-His-Gln-Arg-Val-Gln-NH2 (GPEHQRVQ-NH2; listed as Homo sapiens) [Gly 6-UAG (6-13)]
cell survival (MTT) (HIT-T15 β-cells [1]; [6]): best effect

Ac-Ser-pro-Glu-His-Gln-Arg-Val-Gln-NH2 (Ac-S[dP]EHQRVQ-NH2; listed as Homo sapiens) [AcSer 6-(D)Pro 7-UAG (6-13)]
cell survival (MTT) (HIT-T15 β-cells [1]; [6]): lowest

EHQRVQ [UAG (8-13)]
cytokine-induced apoptosis (HIT-T15 β-cells [2]): significantly inhibited apoptosis at 10 and 100 nM

ESKKPPAKLQPR [UAG (17-28)]
cell survival (MTT) (human pancreatic islets; serum deprived medium alone): significantly increased survival of islet cells | cell survival (MTT) (human pancreatic islets; [7]): had no effect | cell survival (MTT) (INS-1E β-cells; [6]): reduced effect | cell survival (MTT) (INS-1E β-cells; serum-free medium): reduced, although significant, survival action | cell survival (MTT) (HIT-T15 β-cells [1]; serum deprived medium alone): no significant effect | cell survival (MTT) (HIT-T15 β-cells [1]; [6]): no significant effect

His-Gln-Arg [UAG (9-11)]
cell survival (MTT) (HIT-T15 β-cells [1]; [6]): no significant effect at both concentrations tested
